What is called IC50 is the concentration needed to halve the response being measured. A word on the melting point: it is the temperature of the solid-liquid transition.

Among the data in US7479489B2, “Heterocyclic antiviral compounds” (Roche Palo Alto LLC, priority 2004, dated 2009) are IC50 and melting point values, retold here.

The subject of data set [1] is Renilla luciferase HCV replicon cells (2209-23). Kind of data set: Renilla luciferase assay (HCV replicon). The data set is classed as cell-based. The following applies: 72 h; replicon level, three days incubation. In general terms: Replicon systems follow genome replication, usually without infectious particles.
The target in the next data set is T1, HCV NS5B570n-BK (Hepatitis C virus genotype 1b, UniProt P26663).
T1 construct: His tag (N); made in house; host or cells: E. coli strain M15
Kind of data set: HCV NS5B RNA polymerase activity. The data set is classed as biochemical, HCV BK strain. As for the experimental part:
The enzymatic activity of HCV NS5B570n-BK is measured as incorporation of radiolabeled nucleotide monophosphates into acid insoluble RNA products. Unincorporated radiolabel substrate is removed by filtration and scintillant is added to the washed and dried filter plate containing radiolabeled RNA product. The light emitted by the scintillant is proportional to the amount of RNA product generated by NS5B570n-BK at the endpoint of the reaction.
The N-terminally histidine tagged HCV polymerase, derived from HCV BK strain, genotype 1b (NS5B570n-BK) contains a 21 amino acid deletion at the C-terminus relative to the full-length HCV polymerase and is purified from E. coli strain M15. The construct containing the coding sequence of HCV BK strain amino acid residues 2421-2999 (GenBank accession number M58335) downstream of a […] promoter expression cassette was inserted into plasmid constructs. The plasmid constructs are transformed in E. coli and colonies are inoculated and grown overnight in 10 L of Terrific broth (Tartoff and Hobbs) supplemented with 100 μg/mL ampicillin at 37° C. Protein expression is induced by addition of 1 mM isopropyl-β-D-thiogalactopyranoside (IPTG), when optical densities reaches between 1.5 and 3.5 OD600 and the culture is then incubated for 16- to 18 h at 22° C. NS5B570n-BK is purified to homogeneity using a three step protocol including subsequent column chromatography on Ni-NTA, SP-Sepharose HP and Superdex 75 resins.
Each 50 μl enzymatic reaction contains 8:4 μg/mL polyA:oligo U16 (template:primer), 20 nM or 200 nM NS5B570n-BK enzyme, 1 μCi of tritiated UTP (Perkin Elmer catalog no. TRK412; specific activity: 30 to 60 Ci/mmol; stock solution concentration from 7.5×10^−5 M to 20.6×10^−6 M), 40 mM Tris-HCl pH 8.0, 2 to 40 mM NaCl, 4 mM DTT (dithiothreitol), 4 mM MgCl2, and 5 μl of compound serial diluted in DMSO. Reaction mixtures are assembled in MADVNOB 96-well filter plates (Millipore Co.) and incubated for 2 h at 30° C. Reactions are stopped by addition of 10% (v/v) trichloroacetic acid and incubated for 40 min at 4° C. Reactions are filtered, washed with 8 reaction volumes of 10% (v/v) trichloroacetic acetic acid, 4 reaction volumes of 70% (v/v) ethanol, air dried, and 25 μl of scintillant (Microscint 20, Perkin-Elmer) is added to each reaction well.
The amount of light emitted from the scintillant is converted to counts per minute (CPM) on a Topcount® plate reader (Perkin-Elmer, Energy Range: Low, Efficiency Mode: Normal, Count Time: 1 min, Background Subtract: none, Cross talk reduction: Off).
Data is analyzed with GraphPad® Prism® and/or Microsoft® Excel®. The reaction in the absence of enzyme is used to determine the background signal, which is subtracted from the enzymatic reactions. Positive control reactions are performed in the absence of compound, from which the background corrected activity is set as 100% polymerase activity. All data is expressed as a percentage of the positive control. The compound concentration at which the enzyme-catalyzed rate of RNA synthesis is reduced by 50% (IC50) is calculated by fitting equation (i) to
[formula] the data, where “Y” corresponds to the relative enzyme activity (in %), “% Min” is the residual relative enzymatic activity at saturating compound concentration, “% Max” is the maximal relative enzymatic activity compared to positive control, X corresponds to the compound concentration, and “S” is the Hill coefficient (or slope).
Alternatively the assay can be run as described above with the following modifications. The polyA:oligo U16 homopolymeric RNA template:primer is replaced by the heteropolymeric cIRES RNA template at concentrations of 20 nM or 200 nM. The cIRES RNA template is derived from the complementary sequence of the Internal Ribosome Entry site of the HCV genome (nucleotide 1 through 378 at the 5′-end of the negative strand of the HCV genome (EMBL database accession number AJ238799). The reaction mixture is supplemented with 1 μM ATP, CTP, and GTP […]

T1 sequence (P26663 2421-2989): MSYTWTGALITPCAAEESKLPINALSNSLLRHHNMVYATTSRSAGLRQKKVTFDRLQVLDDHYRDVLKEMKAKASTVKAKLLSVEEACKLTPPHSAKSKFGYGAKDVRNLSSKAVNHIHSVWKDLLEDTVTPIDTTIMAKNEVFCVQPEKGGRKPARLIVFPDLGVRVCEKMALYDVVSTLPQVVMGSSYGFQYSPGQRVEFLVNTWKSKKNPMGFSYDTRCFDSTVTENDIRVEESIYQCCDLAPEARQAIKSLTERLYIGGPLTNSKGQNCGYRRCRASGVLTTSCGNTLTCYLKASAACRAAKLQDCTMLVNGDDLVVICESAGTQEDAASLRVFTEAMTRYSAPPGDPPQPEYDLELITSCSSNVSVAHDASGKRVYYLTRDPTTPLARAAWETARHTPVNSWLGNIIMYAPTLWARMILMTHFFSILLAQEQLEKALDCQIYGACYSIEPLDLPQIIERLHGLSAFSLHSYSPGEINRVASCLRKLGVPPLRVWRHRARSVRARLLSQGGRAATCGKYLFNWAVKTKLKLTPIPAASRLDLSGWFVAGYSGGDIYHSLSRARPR

As to `NS(=O)(=O)Nc1ccc2c(c1)S(=O)(=O)C=C(c1c(O)c3cc(F)ccc3n(CCC3CC3)c1=O)N2` [Compound I-40, 1-{3-[1-(2-cyclopropyl-ethyl)-6-fluoro-4-hydroxy-2-oxo-1,2-dihydro-quinolin-3-yl]-1,1-dioxo-1,4-dihydro-1λ^6-benzo[1,4]thiazin-7-yl}-sulfamide], the melting point lay within 183 to 186 °C. The half-inhibitory concentration (IC50) in data set [1] amounted to 9 nM. Besides, the concentration for half-maximal inhibition (IC50) against HCV NS5B570n-BK (200 nM polyA: oligo U16) was determined as 350 nM. Regarding `CC(C)(C)[C@H]1C(O)=C(C2=CS(=O)(=O)c3cc(NS(C)(=O)=O)ccc3N2)C(=O)N1Cc1ccc(F)c(Cl)c1` [II-11, N-{3-[(S)-5-tert-Butyl-1-(3-chloro-4-fluoro-benzyl)-4-hydroxy-2-oxo-2,5-dihydro-1H-pyrrol-3-yl]-1,1-dioxo-1,4-dihydro-1λ^6-benzo[1,4]thiazin-7-yl}-methanesulfonamide], the IC50 in data set [1] came out at 9 nM; against HCV NS5B570n-BK (20 nM cIRES) it was 4.6 nM. Turning to `NC(=O)COc1ccc2c(c1)S(=O)(=O)C=C(c1c(O)c3cc(F)ccc3n(Cc3ccc(F)cc3)c1=O)N2` [Compound I-20, 2-{3-[6-Fluoro-1-(4-fluoro-benzyl)-4-hydroxy-2-oxo-1,2-dihydro-quinolin-3-yl]-1,1-dioxo-1,4-dihydro-1λ^6-benzo[1,4]thiazin-7-yloxy}-acetamide], the IC50 is 1050 nM in data set [1] and 150 nM on HCV NS5B570n-BK (200 nM polyA: oligo U16).

As to `CC(C)CCN1C(=O)C(C2=CS(=O)(=O)c3ccccc3N2)=C(O)[C@@H]1C1CCCCC1`, the melting point was 98 to 100 °C.

In turn, `CC(C)(C)[C@H]1C(O)=C(C2=CS(=O)(=O)c3cc([N+](=O)[O-])ccc3N2)C(=O)N1Cc1ccc(F)cc1` yielded a melting point of 138 to 147 °C. Turning to `Cc1noc(C)c1S(=O)(=O)Nc1ccc2c(c1)S(=O)(=O)C=C(c1c(O)c3cc(F)ccc3n(CCC3CC3)c1=O)N2`, the melting point is 150 to 157 °C.

Compound `O=c1c(C2=CS(=O)(=O)c3ccccc3N2)c(O)c2cc(Cl)ccc2n1CCC1CC1` came in with a melting point of 227 to 229 °C.

Compound `CCCS(=O)(=O)Nc1ccc2c(c1)S(=O)(=O)C=C(c1c(O)c3cc(F)ccc3n(CCC3CC3)c1=O)N2` registered a melting point of 145 to 150 °C. For the compound `CN(c1ccc2c(c1)S(=O)(=O)C=C(c1c(O)c3cc(F)ccc3n(Cc3ccc(F)cc3)c1=O)N2)S(C)(=O)=O`, the melting point lay in the range of 214 to 218 °C. On to `CCCS(=O)(=O)Nc1ccc2c(c1)S(=O)(=O)C=C(c1c(O)c3cc(F)ccc3n(CCC3CC3)c1=O)N2.[Na]`, for which the melting point was > 250 °C.

Turning to `CC(C)CCn1c(=O)c(C2=CS(=O)(=O)c3ccccc3N2)c(O)c2cc(Cl)ccc21`, the melting point fell in the range of 194 to 197 °C. Consider `N#Cc1cccc(Cn2c(=O)c(C3=CS(=O)(=O)c4ccccc4N3)c(O)c3cc(F)ccc32)c1`, for which the melting point is > 250 °C. `O=C1C(C2=CS(=O)(=O)c3ccccc3N2)=C(O)[C@H](C2CCCCC2)N1Cc1ccc(F)cc1.[Na]`: the melting point was > 250 °C. `CC(C)CCn1c(=O)c(C2=CS(=O)(=O)c3cc(NS(C)(=O)=O)ccc3N2)c(O)c2cc(F)ccc21`: the melting point lay within 205 to 219 °C. Consider `CS(=O)(=O)Nc1ccc2c(c1)S(=O)(=O)C=C(c1c(O)c3cc(F)ccc3n(Cc3ccc(F)cc3)c1=O)N2` [Compound I-24, N-{3-[6-Fluoro-1-(4-fluoro-benzyl)-4-hydroxy-2-oxo-1,2-dihydro-quinolin-3-yl]-1,1-dioxo-1,4-dihydro-1λ^6-benzo[1,4]thiazin-7-yl}-methanesulfonamide], for which the IC50 in data set [1] was 13 nM; against HCV NS5B570n-BK (20 nM cIRES), 5.5 nM; against HCV NS5B570n-BK (200 nM cIRES), 67 nM; against HCV NS5B570n-BK (200 nM polyA: oligo U16) it was 151 nM. With `O=c1c(C2=CS(=O)(=O)c3ccccc3N2)c(O)c2cc(F)ccc2n1Cc1ccc(F)c(F)c1.[Na]`, the melting point lay in the range of 230 to 235 °C. For the compound `CC[C@H](C)[C@H]1C(O)=C(C2=CS(=O)(=O)c3ccccc3N2)C(=O)N1Cc1ccccc1`, the melting point fell in the range of 88 to 95 °C.

`COC(=O)COc1ccc2c(c1)S(=O)(=O)C=C(c1c(O)c3cc(F)ccc3n(Cc3ccc(F)cc3)c1=O)N2` displayed a melting point of 200 to 207 °C. For `CS(=O)(=O)Nc1ccc2c(c1)S(=O)(=O)C=C(c1c(O)c3cc(F)ccc3n(CC3CCCCC3)c1=O)N2`, the melting point was 184 to 203 °C. For `CS(=O)(=O)Nc1ccc2c(c1)S(=O)(=O)C=C(c1c(O)c3cc(F)c(F)cc3n(Cc3ccc(F)cc3)c1=O)N2` [Compound I-69, N-{3-[6,7-Difluoro-1-(4-fluoro-benzyl)-4-hydroxy-2-oxo-1,2-dihydro-quinolin-3-yl]-1,1-dioxo-1,4-dihydro-1λ^6-benzo[1,4]thiazin-7-yl}-methanesulfonamide], the values for the IC50 (in data set [1]; at HCV NS5B570n-BK (20 nM cIRES)) were 15 nM and 14.4 nM, respectively. Compound `CS(=O)(=O)Nc1ccc2c(c1)S(=O)(=O)C=C(c1c(O)c3cc(F)ccc3n(Cc3cccnc3)c1=O)N2` gave a melting point of 174 to 186 °C.

`O=c1c(C2=CS(=O)(=O)c3ccccc3N2)c(O)c2cc(F)ccc2n1Cc1ccc(F)c(F)c1` returned a melting point of 230 to 235 °C. On the same count and under the same terms, as for `CC[C@H](C)[C@H]1C(O)=C(C2=CS(=O)(=O)c3ccccc3N2)C(=O)N1CCC(C)C`, the figure is 72 to 80 °C; as for `CC(C)CCn1c(=O)c(C2=CS(=O)(=O)c3ccc(Cl)cc3N2)c(O)c2ccccc21`, 90 to 110 °C; as for `CC(C)(C)[C@H]1C(O)=C(C2=CS(=O)(=O)c3cc(NS(C)(=O)=O)ccc3N2)C(=O)N1CCC1CC1`, 140 to 145 °C.

With `Cc1ccc2c(c1)c(O)c(C1=CS(=O)(=O)c3ccccc3N1)c(=O)n2Cc1ccc(F)cc1.[Na]`, the melting point was > 250 °C. As for `CS(=O)(=O)Nc1ccc2c(c1)S(=O)(=O)C=C(c1c(O)c3cc(F)ccc3n(Cc3ccc(F)c(F)c3)c1=O)N2`, the melting point was in the range of 148.2 to 149.4 °C. Regarding `CCS(=O)(=O)Nc1ccc2c(c1)S(=O)(=O)C=C(c1c(O)c3cc(F)ccc3n(CCC3CC3)c1=O)N2` [Compound I-32, ethanesulfonic acid {3-[1-(2-cyclopropyl-ethyl)-6-fluoro-4-hydroxy-2-oxo-1,2-dihydro-quinolin-3-yl]-1,1-dioxo-1,4-dihydro-1λ6-benzo[1,4]thiazin-7-yl}-amide], the melting point lay within 140 to 142 °C. The compound further showed an IC50 in data set [1] of 5 nM. The same compound had a half-inhibitory concentration (IC50) at HCV NS5B570n-BK (20 nM cIRES) of 7.3 nM. In addition, on HCV NS5B570n-BK (200 nM polyA: oligo U16), the IC50 turned out to be 220 nM. With `CN1C(c2nc(Cc3ccc(F)cc3)c3ccccc3c2O)=CS(=O)(=O)c2cc(Cl)ccc21`, the melting point was > 275 °C. In the case of `NC(=O)CCOc1ccc2c(c1)S(=O)(=O)C=C(c1c(O)c3cc(F)ccc3n(CCC3CC3)c1=O)N2`, the melting point is > 250 °C.

In the case of `CC(C)(C)[C@H]1C(O)=C(C2=CS(=O)(=O)c3cc(NS(N)(=O)=O)ccc3N2)C(=O)N1Cc1ccc(F)cc1`, the melting point was 150 to 156 °C.

For the compound `Nc1ccc2c(c1)S(=O)(=O)C=C(c1c(O)c3cc(F)ccc3n(Cc3ccc(F)cc3)c1=O)N2`, the melting point is > 250 °C.
